Data reported in paper PMC9599613 (Biomolecules, 2022).

Assays:
[1] = target: T1, human recombinant 5-LOX (Homo sapiens, UniProt P09917); test: biochemical
T1 sequence (P09917 1-674): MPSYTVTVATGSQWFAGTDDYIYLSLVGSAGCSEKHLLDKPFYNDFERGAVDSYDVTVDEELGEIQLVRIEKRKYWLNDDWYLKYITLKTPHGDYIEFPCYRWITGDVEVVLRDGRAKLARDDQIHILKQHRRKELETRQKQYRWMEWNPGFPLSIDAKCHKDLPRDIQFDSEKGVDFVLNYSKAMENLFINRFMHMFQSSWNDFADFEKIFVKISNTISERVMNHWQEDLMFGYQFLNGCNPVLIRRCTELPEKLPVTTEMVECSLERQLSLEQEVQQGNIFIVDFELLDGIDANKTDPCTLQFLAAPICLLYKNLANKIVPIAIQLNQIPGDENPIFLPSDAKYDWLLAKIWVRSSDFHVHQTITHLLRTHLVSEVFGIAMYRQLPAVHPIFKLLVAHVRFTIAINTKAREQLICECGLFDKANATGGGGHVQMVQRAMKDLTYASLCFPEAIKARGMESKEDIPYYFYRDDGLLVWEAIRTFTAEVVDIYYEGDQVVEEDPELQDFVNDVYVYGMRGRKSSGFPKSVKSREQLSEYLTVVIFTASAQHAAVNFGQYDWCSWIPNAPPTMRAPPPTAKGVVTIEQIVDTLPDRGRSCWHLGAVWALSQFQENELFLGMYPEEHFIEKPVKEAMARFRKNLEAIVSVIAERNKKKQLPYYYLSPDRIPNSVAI
Experimental: The lipoxygenase assay on our test compounds was performed by utilizing human recombinant 5-LOX [65]. […] The enzyme solution with a concentration of 10,000 U/mL was prepared, whereas 80 mM linoleic acid solution was used as a substrate. Solutions were prepared in a phosphate buffer (50 mM) with a pH of 6.3, which was also utilized as the blank. To start, various concentrations of our test samples were dissolved in 0.25 mL of the buffer, to which 0.25 mL enzyme solution was added and incubated at 25 °C for 5 min. Afterward, the substrate solution (0.1 mL) was added to the mixture and shaken well. […] In this assay, the standard drug was montelukast, and using the following formula, the % inhibitions were calculated: % enzyme inhibition=X−X1/X×100 where X = absorbance of the negative control (with no test sample), and X1 = absorbance of the test compound.

[2] = target: COX-1 (Homo sapiens, UniProt P23219); test: biochemical; details: read-out: % COX-1 Inhibition
Chain of COX-1 (P23219 24-599): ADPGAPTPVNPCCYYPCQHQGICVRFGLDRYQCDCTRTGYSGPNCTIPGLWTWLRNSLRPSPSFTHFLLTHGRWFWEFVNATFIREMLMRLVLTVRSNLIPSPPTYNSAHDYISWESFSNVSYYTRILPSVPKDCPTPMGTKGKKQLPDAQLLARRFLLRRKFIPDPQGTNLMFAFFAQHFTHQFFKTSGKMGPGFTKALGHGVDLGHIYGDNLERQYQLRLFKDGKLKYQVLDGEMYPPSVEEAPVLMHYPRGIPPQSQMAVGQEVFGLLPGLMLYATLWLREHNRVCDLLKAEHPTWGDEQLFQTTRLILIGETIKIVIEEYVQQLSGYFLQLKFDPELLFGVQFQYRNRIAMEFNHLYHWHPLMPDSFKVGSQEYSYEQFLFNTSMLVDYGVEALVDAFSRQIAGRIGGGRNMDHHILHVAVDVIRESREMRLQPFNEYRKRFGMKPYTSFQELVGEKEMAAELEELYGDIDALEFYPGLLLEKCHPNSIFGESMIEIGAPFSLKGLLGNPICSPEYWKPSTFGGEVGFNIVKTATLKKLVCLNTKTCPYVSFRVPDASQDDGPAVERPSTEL
Experimental: (§1) The Cyclooxygenase enzymes (COX-1 and 2) inhibitory potential of our test compounds was determined according to the previously reported procedure. […] The enzyme solutions with a concentration of 0.7–0.8 μg/10 μL (COX-1) and 300 U/mL (COX-2) were prepared. To start the assay, for enzyme activation, 10 µL enzyme solution (kept in a cool temperature of 4 °C for 5 min) and cofactor containing hematin (50 µL, 1 mM), glutathione (0.9 mM) and TMPD in a Tris-buffer (0.1 M) with a pH 8.0 was added. After that, 60 µL of the enzyme solution was added to 20 µL of the test samples of various concentrations and incubated at room temperature for 5 to 10 min. Then, 20 µL of arachidonic acid (30 mM) was added to start the reaction. The mixture was then again incubated for 15 min at 37 °C, and absorbances were measured at 570 nm with UV-visible spectrophotometer. […] The % enzyme inhibitions were calculated by using the previously reported formula.

[3] = target: T2, COX-2 (Homo sapiens, UniProt P35354); test: biochemical
T2 sequence (P35354 18-604): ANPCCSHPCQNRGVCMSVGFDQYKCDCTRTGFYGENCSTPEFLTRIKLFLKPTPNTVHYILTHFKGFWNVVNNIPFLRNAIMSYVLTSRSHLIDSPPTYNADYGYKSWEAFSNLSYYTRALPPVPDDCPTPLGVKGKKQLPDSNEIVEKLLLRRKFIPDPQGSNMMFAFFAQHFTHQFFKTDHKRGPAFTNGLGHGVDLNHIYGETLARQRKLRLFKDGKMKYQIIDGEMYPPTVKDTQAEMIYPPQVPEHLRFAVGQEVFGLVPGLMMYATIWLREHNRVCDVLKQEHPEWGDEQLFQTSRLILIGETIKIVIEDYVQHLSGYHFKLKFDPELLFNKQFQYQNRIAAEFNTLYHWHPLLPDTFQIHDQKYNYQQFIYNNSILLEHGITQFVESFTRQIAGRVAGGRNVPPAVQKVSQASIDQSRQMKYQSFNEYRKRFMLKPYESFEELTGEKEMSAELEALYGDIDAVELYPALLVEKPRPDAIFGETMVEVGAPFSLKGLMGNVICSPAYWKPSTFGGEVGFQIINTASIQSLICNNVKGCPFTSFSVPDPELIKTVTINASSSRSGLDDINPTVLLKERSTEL
Experimental: as §1

[4] = ABTS free radical scavenging assay
Experimental: The antioxidant potentials of isolated phytosteroids 1 and 2 were also determined using the ABTS (2,2′-azino-bis(3-ethylbenzothiazoline-6-sulfonic acid)) standard method. […] This created free radicals within the sample. Afterward, the addition of 50% methanol and the ABTS radical cation solution were adjusted to pH 7.4 by dilution with the phosphate buffer (pH 7.4). […] The positive control was ascorbic acid, and the assay was repeated in triplicate. The percent radical scavenging potential of the test compounds was calculated using the standard reported formula.

Structure (SMILES): CCC(CCC(C)C1CCC2C3CCC4=CC(=O)CCC4(C)C3CCC12C)C(C)C (stereo not drawn) [Compound 2, 17-(5-ethyl-6-methylheptan-2-yl)-10,13-dimethyl-1,2,6,7,8,9,10,11,12,13,14,15,16,17-tetradecahydro-3H-cyclopenta[a]phenanthren-3-one]
- IC50 ([1]; read-out: 5-LOX IC50 (converted)): 21.1 µM
- inhibition at 62.5 µg/mL ([1]; read-out: % 5-LOX Inhibition): 63.47 ± 0.56%
- inhibition at 125 µg/mL ([1]; read-out: % 5-LOX Inhibition): 67.74 ± 0.61%
- inhibition at 250 µg/mL ([1]; read-out: % 5-LOX Inhibition): 73.67 ± 0.61%
- inhibition at 500 µg/mL ([1]; read-out: % 5-LOX Inhibition): 78.76 ± 0.58%
- inhibition at 1000 µg/mL ([1]; read-out: % 5-LOX Inhibition): 85 ± 0.3%
- inhibition at 62.5 µg/mL [2]: 32.5 ± 0.65%
- inhibition at 125 µg/mL [2]: 37.7 ± 0.45%
- inhibition at 250 µg/mL [2]: 44.86 ± 0.02%
- inhibition at 500 µg/mL [2]: 51.67 ± 0.11%
- inhibition at 1000 µg/mL [2]: 57.6 ± 1.18%
- inhibition at 62.5 µg/mL ([3]; 62.50 μg/mL, read-out: % COX-2 Inhibition): 61.9 ± 1.13%
- inhibition at 125 µg/mL ([3]; 125 μg/mL, read-out: % COX-2 Inhibition): 68.3 ± 0.64%
- inhibition at 250 µg/mL ([3]; 250 μg/mL, read-out: % COX-2 Inhibition): 73.34 ± 0.63%
- inhibition at 500 µg/mL ([3]; 500 μg/mL, read-out: % COX-2 Inhibition): 78.3 ± 0.64%
- inhibition at 1000 µg/mL ([3]; 1000 μg/mL, read-out: % COX-2 Inhibition): 83.17 ± 0.72%
- IC50 ([3]; read-out: COX-2 IC50 (converted)): 20.5 µM
- ABTS IC50 [4]: 185.83 µg/mL
- Percent ABTS Activity (mean ± SEM) ([4]; 62.5 μg/mL): 41.34 ± 1.01 %
- Percent ABTS Activity (mean ± SEM) ([4]; 125 μg/mL): 46.73 ± 0.78 %
- Percent ABTS Activity (mean ± SEM) ([4]; 250 μg/mL): 51.37 ± 1.65 %
- Percent ABTS Activity (mean ± SEM) ([4]; 500 μg/mL): 57.85 ± 0.97 %
- Percent ABTS Activity (mean ± SEM) ([4]; 1000 μg/mL): 65.17 ± 0.72 %
- Percent ABTS Activity (mean ± SEM) ([4]; 1000 μg/mL, listed as compound 2): 65.17 ± 0.72%
